Results as given in PubChem BioAssay AID489032 (Sanford-Burnham Center for Chemical Genomics, 2010).
Active and inactive are the calls of the source. The rule behind the calls is not given here.

Tested on: UPR adaptive arm reporter cells, luciferase luminescence
Experiment: adaptive unfolded protein response reporter activation – cell-based, luciferase luminescence, dose response (AID 489032)

Row | EC50 | Compound
1 | 43.3 µM (inactive) | COc1ccc(-c2coc3cc4oc(=O)cc(-c5ccccc5)c4cc23)cc1F
2 | > 80 µM (inactive) | COc1ccc(-c2nn(-c3ccccc3)cc2/C=N/N2C(=O)CSC2=S)cc1
3 | > 80 µM (inactive) | Cc1ccc(Cn2c(SCC(=O)Nc3cc(C)on3)nc3ccccc3c2=O)cc1
4 | > 80 µM (inactive) | CCc1ccc2nc(N(CCCN(C)C)C(=O)c3ccc(S(=O)(=O)N4CCc5ccccc5C4)cc3)sc2c1
5 | > 80 µM (inactive) | COc1ccc(C(=O)/C=C/c2ccc(O)cc2)c(O)c1C/C=C(\C)CCC=C(C)C
6 | 11.6 µM | CCOc1ccccc1N=Cc1c(O)c2ccccc2oc1=O
7 | > 80 µM (inactive) | Cc1ccc(Nc2nc(NCCO)c3ccccc3n2)cc1C
8 | 26.6 µM (inactive) | Cc1c(Cl)cccc1Nc1nc(NCCO)c2ccccc2n1
9 | 58.6 µM (inactive) | Cc1ccc(CN2C(=O)C(=O)c3cc(C)ccc32)cc1
10 | > 80 µM (inactive) | O=C(NN1C(=O)/C(=C/c2ccc(O)c(O)c2)SC1=S)c1ccccc1
11 | > 80 µM (inactive) | O=C1c2cccc3cc(Br)cc(c23)C(=O)N1Nc1ccc(Br)cc1
12 | 28.4 µM (inactive) | Oc1ccc(-c2nc3ccc4ccccc4c3c3c2CCC3)cc1O
13 | > 80 µM (inactive) | O=[N+]([O-])c1ccc(N/N=C/c2ccc(OCc3cccc4ccccc34)cc2)nc1
14 | > 80 µM (inactive) | Cc1cc(C)c2c(n1)sc1c(-c3ccccc3)c(C#N)c(N)nc12
15 | > 80 µM (inactive) | CCCNC(=O)/C(C#N)=C1\N=C(NC(=O)c2cccs2)c2ccccc21
16 | 73 µM (inactive) | COc1ccc(CNC(=O)/C(C#N)=C/c2cccc(OC)c2OC)cc1
17 | 28.3 µM (inactive) | Brc1ccc(C2=Nn3c(nnc3-c3n[nH]c4c3CCC4)SC2)cc1
18 | > 80 µM (inactive) | COc1ccc(-c2nc3scc(-c4ccc(OC)c(OC)c4)c3c(=O)o2)cc1
19 | > 80 µM (inactive) | O=C(CSc1nc2ccccc2c(=O)n1-c1ccccc1)N1CCc2ccccc21
20 | > 80 µM (inactive) | COc1ccc(OCc2n(CC(=O)OC3CC(C)CCC3C(C)C)c3ccccc3[n+]2C)cc1 (centres undefined)
21 | > 80 µM (inactive) | CCCCCC(=O)Nc1ccc(C(=O)N/N=C/c2ccc([N+](=O)[O-])cc2)cc1
22 | > 80 µM (inactive) | CCCCN1C(=O)/C(=C2/Sc3ccc(OC)cc3N2CC)SC1=S
23 | 25.6 µM (inactive) | CCOC(=O)c1c(NC(=O)/C=C/C(=O)O)sc(C)c1-c1ccc(C(C)(C)C)cc1

Second part, the compound before the results:

Row | Compound | EC50
24 | CN1/C(=C\C(=O)COC(=O)c2ccc(O)c(O)c2)C(C)(C)c2ccccc21 | > 80 µM (inactive)
25 | Cc1ccc(CNC(=O)c2ccc3c(=O)n4c(-c5ccc(C)cc5)csc4nc3c2)cc1 | > 80 µM (inactive)
26 | Cc1ccc2c(c1)C(=O)C(=O)N2Cc1ccc(C(F)(F)F)cc1 | 27.5 µM (inactive)
27 | Cc1cc(SCC(=O)c2ccc(O)c(O)c2)n2nc(C)c(-c3ccccc3)c2n1 | > 80 µM (inactive)
28 | COc1cc([C@H]2c3[nH]c4ccccc4c3C[C@H]3C(=O)N4[C@@H](c5cc(OC)c(OC)c(OC)c5)c5[nH]c6ccccc6c5C[C@H]4C(=O)N23)cc(OC)c1OC | 12.1 µM
29 | Cc1nn(Cc2ccccc2)c(C)c1NC(=O)CSc1nc(C2CC2)nc2c1cnn2-c1ccccc1 | 47.2 µM (inactive)
30 | CCOc1cc(CNC(C)(C)CO)cc(Br)c1OCc1ccc(Cl)cc1Cl | 20 µM
31 | CCOc1ccc(-n2nc3ccc(NC(=O)c4ccc5c(c4)OCCO5)cc3n2)cc1 | > 80 µM (inactive)
32 | COc1ccc(/C=N/NC(=O)c2cccc([N+](=O)[O-])c2)c2ccccc12 | > 80 µM (inactive)
33 | Cc1ccc(NC(=O)Cn2c(/C=C/c3ccccc3)nc3ccccc32)cc1C | > 80 µM (inactive)
34 | CC(C)(C)c1cc(-c2nc(N)nc(N)n2)c(O)c(C(C)(C)C)c1 | 38.8 µM (inactive)
35 | CCOc1cc(/C=C(\C#N)c2[nH]nc(N)c2C#N)ccc1O | > 80 µM (inactive)
36 | O=C(NCC1CCCO1)c1nn2c(C(F)(F)F)cc(-c3cc(Br)cs3)nc2c1Br (centres undefined) | > 80 µM (inactive)
37 | CC(=O)c1cccc(Nc2nc(-c3cccc([N+](=O)[O-])c3)cs2)c1 | > 80 µM (inactive)
38 | CCCCC1CCC(C(=O)N(CC(C)C)c2c(N)n(CCCC)c(=O)[nH]c2=O)CC1 (centres undefined) | > 80 µM (inactive)
39 | CCOC(=O)C1=C(O)/C(=C/c2cn(CC(=O)NCC3CCCO3)c3ccccc23)SC1=Nc1ccc(C)cc1 (centres undefined) | > 80 µM (inactive)
40 | Cc1cnc(NC(=O)c2cc(S(=O)(=O)N(C)C)ccc2N2CCCC2)s1 | 6.6 µM
41 | O=C(N/N=C/c1ccccc1Cl)c1[nH]c2ccc(Br)cc2c1-c1ccccc1 | 32.9 µM (inactive)
42 | Cc1ccc2c(=O)[nH]c(Nc3nc(C)cc(-c4ccccc4)n3)nc2c1 | > 80 µM (inactive)
43 | O=C(/C=C/c1ccccc1)c1ccccc1O | > 80 µM (inactive)
44 | COc1ccc(CCn2c(C3CCCCC3)nc3c(c(=O)c4ccccc4n3C)c2=O)cc1 | > 80 µM (inactive)
45 | N#C/C(=C/c1ccc(N2CCCC2)c([N+](=O)[O-])c1)c1nc2ccccc2[nH]1 | > 80 µM (inactive)
46 | CCCCCCCCCCn1c2c(c(=N)c3c1CCC3)CCC2 | 24.9 µM (inactive)
47 | CC1=C(/C=C/C(C)=C/C=C/C(C)=C/C(=O)Nc2ccc(O)cc2)C(C)(C)CCC1 | > 80 µM (inactive)
48 | CCc1ccc(OCCNc2cc(N3CCNC(C)C3)ccc2[N+](=O)[O-])cc1 (centres undefined) | 18.9 µM
49 | CC1C/C(=N/Nc2nc3ccccc3[nH]2)CC(C)(C)C1 (centres undefined) | > 80 µM (inactive)
